From patent publication US6242173A, “Immunoassays for catalytically-active, serine proteases” (University of Vermont and State Agriculatural College, priority 1992, dated 2001)
“Also recorded” adds a separate entry of the source.

Key:
bovine Xa = bovine Xa (Bos taurus, UniProt P00743); assay: Fluorophore-protein ratios by absorbance; format: binding; conditions: isolated labeled protein
Human Xa [1] = target: T1, Human Xa (Homo sapiens, UniProt P00742); assay: Fluorophore-protein ratios by absorbance; format: binding; conditions: isolated labeled protein
T1 construct: from tissue; host or cells: fresh frozen human plasma

thrombin = target: T2, thrombin (Homo sapiens, UniProt P00734); assay: Blocking of the reaction of thrombin with synthetic substrate S2238; format: biochemical; conditions: solution in 1.0 mM HCl
T2 construct: from tissue; host or cells: fresh frozen human plasma
Protocol: FPRck.2HCl (Calbiochem) (5.0 mg, […]) was dissolved in methanol (1.0 mL) and treated with 2,6-dansyl chloride (Molecular Probes) (2.6 mg, 9.5 μmoles) in DMF (1.0 mL). The solution was mixed and treated with 4-methylmorpholine (20 μL, 16 μmoles). After 20 minutes at 25° C., the reaction was stopped by addition of 1.0 M HCl (100 μL) and the mixture was applied directly to a SEPHADEX LH-20 column (1×30 cm, in methanol). The elution was followed by fluorescence, A280, Sakaguchi stain and thin layer chromatography. The product appeared as a single fluorescent, Sakaguchi positive spot Rf =0.14 (2:1 chloroform:methanol on Bakerflex silica gel). The pooled sample was evaporated to an oil and taken up in 1.0 mM HCl. […] The solution was lyophilized to an oil which was taken up in 10.0 mM HCl (3.8 mL) and frozen. Final concentration (determined by A360) was 1.0 mM. Yield was 3.8 μmoles or 40%.
Factor Xa: In a one mL cuvette, 22.5 μM S2222 in Hepes/saline pH=7.4 was treated with 1-10 μL of the factor Xa preparation. The mixture was stirred briefly and the absorbance at 405 nm followed in a Cary 219 UV/visible spectrophotometer. The rate was taken for the initial linear phase. Similar methods were used for thrombin (S2238), plasmin (S2251) and tPA (S2238). Hemker, H. C. (1983) in Handbook of Synthetic Substrates: For the Coagulation and Fibrinolytic Systems. Martinus Nijhogg Publishers, Boston.

tissue factor = tissue factor (Homo sapiens, UniProt P13726); assay: Blocking of tissue factor, tissue factor specific activity; format: biochemical
[2] = test system: tissue plasminogen activator (tTPA) (1 and 2 chain); assay: Screening of protein/BC-PPACK reactions, avidin-biotin-peroxidase blot; format: binding, human; conditions: 10 fold molar excess twice, overnight
Protocol: (§1) Samples of purified enzymes, zymogens, or enzyme-zymogen mixtures were treated with BC-PPACK as follows: 10-30 μg samples of protein at 0.5 mg/mL in Hepes (20 mM)/NaCl (150 mM) pH=7.4 was reacted with 10 fold molar excess of BC-PPACK for 30 minutes, followed by a second 10 fold aliquot and overnight incubation at room temperature. Samples were then reduced with 2-mercapto-ethanol and prepared for PAGE gel electrophoresis either on 12×12 cm or PhastGel systems. After electrophoresis, the gels were blotted to nitrocellulose using tris/glycine methanol transfer buffer. The nitrocellulose was then blocked with TWEEN reagent, washed with tris/glycine and reacted with avidin-biotin-peroxidase. Development with 4-chloronapthtalene visualized the biotinylated proteins.
Plasminogen was isolated by passing thawed, aprotinin treated plasma over lysine-Sepharose and eluting the bound plasminogen with ε-aminocaproic acid (ECAC) (Castellino, F. J. and Powell, J. R. (1980) Methods Enzymol. 80:365-378). A second pass over the lysine SEPHAROSE gel, followed by separation from aprotinin on SEPHAROSE gel G-100 gave plasminogen which was homogeneous when evaluated by gel electrophoresis. Plasmin was prepared from plasminogen by treatment with 1:200 (weight:weight) of urokinase in Hepes/saline. Tissue plasminogen activator (tPA) was recombinant human tPA (Genentech) and contained both single chain and two chain forms. Urokinase was a generous gift from Dr. David Stump and was two chain.

hPg = target: T3, hPg (Homo sapiens, UniProt P00747); assay: as above; format: binding; conditions: zymogen; 10 fold molar excess twice, overnight
T3 construct: Plasminogen was isolated by passing thawed, aprotinin treated plasma over lysine-Sepharose; from tissue; host or cells: human plasma (lysine-Sepharose)
Protocol: as §1

hX = target: T4, hX (Homo sapiens, UniProt P00742); assay: as above; format: binding; conditions: zymogen; 10 fold molar excess twice, overnight
T4 construct: Except as noted, all proteins were isolated from fresh frozen human plasma; from tissue; host or cells: fresh frozen human plasma
Protocol: as §1

thrombin (hIIa) = target: T5, thrombin (hIIa) (Homo sapiens, UniProt P00734); assay: as above; format: binding; conditions: 10 fold molar excess twice, overnight
T5 construct: from tissue; host or cells: fresh frozen human plasma
Protocol: as §1

factor Xa (hXa) = target: T6, factor Xa (hXa) (Homo sapiens, UniProt P00742); assay: as above; format: binding; conditions: 10 fold molar excess twice, overnight
T6 construct: from tissue; host or cells: fresh frozen human plasma
Protocol: as §1

factor VIIa (hVIIa) = target: T7, factor VIIa (hVIIa) (Homo sapiens, UniProt P08709); assay: as above; format: binding; conditions: 10 fold molar excess twice, overnight
T7 construct: Human factor VII was converted to VIIa by incubation for 1 hour with a 0.2% (w/w) aliquot of human Xa; from tissue; host or cells: fresh frozen human plasma; VII converted to VIIa with human Xa, or VIIa already present in the isolate
T7 sequence (P08709 213-466 limits assumed): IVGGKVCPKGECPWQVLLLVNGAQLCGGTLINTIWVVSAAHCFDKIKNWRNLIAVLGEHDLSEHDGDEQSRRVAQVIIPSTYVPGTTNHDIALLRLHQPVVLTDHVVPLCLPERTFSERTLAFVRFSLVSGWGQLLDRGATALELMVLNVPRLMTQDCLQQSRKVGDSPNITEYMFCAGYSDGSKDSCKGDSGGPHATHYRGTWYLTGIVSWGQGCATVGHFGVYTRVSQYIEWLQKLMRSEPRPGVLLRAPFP
T7 sequence (P08709 61-212 partner limits assumed): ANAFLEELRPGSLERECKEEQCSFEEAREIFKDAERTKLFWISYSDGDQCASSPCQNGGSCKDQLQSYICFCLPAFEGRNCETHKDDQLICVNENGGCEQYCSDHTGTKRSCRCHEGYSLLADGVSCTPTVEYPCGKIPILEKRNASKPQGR
Protocol: as §1

hVII = target: T8, hVII (Homo sapiens, UniProt P08709); assay: as above; format: binding; conditions: zymogen; 10 fold molar excess twice, overnight
T8 construct: Except as noted, all proteins were isolated from fresh frozen human plasma; from tissue; host or cells: fresh frozen human plasma
T8 sequence (P08709 61-466): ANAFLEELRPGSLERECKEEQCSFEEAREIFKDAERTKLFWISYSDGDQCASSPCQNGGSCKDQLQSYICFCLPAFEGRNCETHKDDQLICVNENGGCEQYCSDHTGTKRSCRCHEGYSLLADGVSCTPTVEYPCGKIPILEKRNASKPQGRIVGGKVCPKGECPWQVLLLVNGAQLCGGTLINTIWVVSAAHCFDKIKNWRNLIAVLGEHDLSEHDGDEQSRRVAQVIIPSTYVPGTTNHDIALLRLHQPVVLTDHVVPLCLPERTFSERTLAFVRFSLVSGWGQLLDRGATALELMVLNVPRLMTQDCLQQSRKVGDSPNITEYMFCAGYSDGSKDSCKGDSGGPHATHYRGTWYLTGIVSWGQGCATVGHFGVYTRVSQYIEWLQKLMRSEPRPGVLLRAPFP
Protocol: as §1

plasmin (hPm) = target: T9, plasmin (hPm) (Homo sapiens, UniProt P00747); assay: as above; format: binding; conditions: 10 fold molar excess twice, overnight
T9 construct: Plasmin was prepared from plasminogen by treatment with 1:200 (weight:weight) of urokinase; from tissue; host or cells: human plasma (lysine-Sepharose)
Protocol: as §1

hII = target: T10, hII (Homo sapiens, UniProt P00734); assay: as above; format: binding; conditions: zymogen; 10 fold molar excess twice, overnight
T10 construct: Except as noted, all proteins were isolated from fresh frozen human plasma; from tissue; host or cells: fresh frozen human plasma
Protocol: as §1

avidin = avidin (Gallus gallus, UniProt P02701); assay: Avidin-biotin interaction (fluorescein-avidin, avidin-acrylic, avidin-peroxidase blotting); conditions: free compound, column fractions in 1.0 mM HCl
activated human plasma = assay: Reaction of activated human plasma with BC-YGR-CK, blot; conditions: thromboplastin and Ca+2 (4 mM) activated plasma, timed aliquots, final CK concentration 1.2 μM
Protocol: Normal human plasma (200 μL) at 37° C. was activated with thromboplastin (10 μL) and Ca^+2 (4 mM). At timed intervals, 20 uL aliquots were removed and added to 2 μL aliquots of […] BC-YGR-CK (final CK concentration was 1.2 μM). A clot was observed after 122 seconds. The samples were then run on PhastGel electrophoresis and blotted to nitrocellulose.

factor VIIa = target: T11, factor VIIa (Homo sapiens, UniProt P08709); assay: Removal of active enzyme from zymogen with biotinylated chloromethyl ketone and avidin matrix; conditions: human factor VII containing factor VIIa; listed as BioCap-YGRck
T11 construct: Human factor VII was converted to VIIa by incubation for 1 hour with a 0.2% (w/w) aliquot of human Xa; from tissue; host or cells: fresh frozen human plasma; VII converted to VIIa with human Xa, or VIIa already present in the isolate
T11 sequence (P08709 213-466 limits assumed): T7 sequence (P08709 213-466 limits assumed)
T11 sequence (P08709 61-212 partner limits assumed): T7 sequence (P08709 61-212 partner limits assumed)

Human Xa [3] = target: T1, Human Xa; assay: Reaction of Human Xa with BC-PPACK, residual activity vs. S2222; format: biochemical

Sequence of tissue plasminogen activator (tTPA) (1 and 2 chain) (P00750 311-562 limits assumed): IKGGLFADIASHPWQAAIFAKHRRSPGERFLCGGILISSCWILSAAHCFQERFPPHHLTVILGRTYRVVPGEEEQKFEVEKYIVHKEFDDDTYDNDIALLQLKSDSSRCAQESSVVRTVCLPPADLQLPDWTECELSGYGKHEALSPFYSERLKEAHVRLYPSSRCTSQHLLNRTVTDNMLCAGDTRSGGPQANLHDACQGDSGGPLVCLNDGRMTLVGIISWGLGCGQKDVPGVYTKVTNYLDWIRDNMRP
T4 sequence (P00742 183-488 limits assumed): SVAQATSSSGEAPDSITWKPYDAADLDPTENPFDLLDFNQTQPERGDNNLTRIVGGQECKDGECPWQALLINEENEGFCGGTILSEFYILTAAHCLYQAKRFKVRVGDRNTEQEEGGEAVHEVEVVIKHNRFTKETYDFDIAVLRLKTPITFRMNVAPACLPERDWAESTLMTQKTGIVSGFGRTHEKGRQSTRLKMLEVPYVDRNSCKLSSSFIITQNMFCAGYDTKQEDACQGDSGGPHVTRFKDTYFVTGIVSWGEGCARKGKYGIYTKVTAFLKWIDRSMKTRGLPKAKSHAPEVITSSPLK
T4 sequence (P00742 41-179 partner limits assumed): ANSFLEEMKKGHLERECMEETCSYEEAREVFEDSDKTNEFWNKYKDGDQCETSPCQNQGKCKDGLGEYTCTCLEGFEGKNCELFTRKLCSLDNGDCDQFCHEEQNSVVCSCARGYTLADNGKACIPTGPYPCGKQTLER
T1 sequence (P00742 235-488 limits assumed): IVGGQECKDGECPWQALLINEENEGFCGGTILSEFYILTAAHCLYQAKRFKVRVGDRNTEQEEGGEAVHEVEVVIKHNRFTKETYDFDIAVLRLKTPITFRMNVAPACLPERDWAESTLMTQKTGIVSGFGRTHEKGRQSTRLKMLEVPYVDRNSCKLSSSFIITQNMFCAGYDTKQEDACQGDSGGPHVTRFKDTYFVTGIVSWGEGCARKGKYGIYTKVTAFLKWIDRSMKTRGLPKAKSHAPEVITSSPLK
T1 sequence (P00742 41-179 partner limits assumed): as the sequence (P00742 41-179 partner limits assumed) above
T6 sequence (P00742 235-488 limits assumed): as the sequence (P00742 235-488 limits assumed) above
T6 sequence (P00742 41-179 partner limits assumed): as the sequence (P00742 41-179 partner limits assumed) above
Sequence of tissue factor (P13726 33-295): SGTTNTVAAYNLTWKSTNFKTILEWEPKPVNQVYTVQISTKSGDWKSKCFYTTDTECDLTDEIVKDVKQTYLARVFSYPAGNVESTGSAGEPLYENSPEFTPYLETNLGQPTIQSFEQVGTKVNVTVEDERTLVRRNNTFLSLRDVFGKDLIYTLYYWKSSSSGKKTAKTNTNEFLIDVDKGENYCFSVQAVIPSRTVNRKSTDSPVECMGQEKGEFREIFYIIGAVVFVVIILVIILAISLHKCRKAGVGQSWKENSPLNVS
T3 sequence (P00747 20-810 limits assumed): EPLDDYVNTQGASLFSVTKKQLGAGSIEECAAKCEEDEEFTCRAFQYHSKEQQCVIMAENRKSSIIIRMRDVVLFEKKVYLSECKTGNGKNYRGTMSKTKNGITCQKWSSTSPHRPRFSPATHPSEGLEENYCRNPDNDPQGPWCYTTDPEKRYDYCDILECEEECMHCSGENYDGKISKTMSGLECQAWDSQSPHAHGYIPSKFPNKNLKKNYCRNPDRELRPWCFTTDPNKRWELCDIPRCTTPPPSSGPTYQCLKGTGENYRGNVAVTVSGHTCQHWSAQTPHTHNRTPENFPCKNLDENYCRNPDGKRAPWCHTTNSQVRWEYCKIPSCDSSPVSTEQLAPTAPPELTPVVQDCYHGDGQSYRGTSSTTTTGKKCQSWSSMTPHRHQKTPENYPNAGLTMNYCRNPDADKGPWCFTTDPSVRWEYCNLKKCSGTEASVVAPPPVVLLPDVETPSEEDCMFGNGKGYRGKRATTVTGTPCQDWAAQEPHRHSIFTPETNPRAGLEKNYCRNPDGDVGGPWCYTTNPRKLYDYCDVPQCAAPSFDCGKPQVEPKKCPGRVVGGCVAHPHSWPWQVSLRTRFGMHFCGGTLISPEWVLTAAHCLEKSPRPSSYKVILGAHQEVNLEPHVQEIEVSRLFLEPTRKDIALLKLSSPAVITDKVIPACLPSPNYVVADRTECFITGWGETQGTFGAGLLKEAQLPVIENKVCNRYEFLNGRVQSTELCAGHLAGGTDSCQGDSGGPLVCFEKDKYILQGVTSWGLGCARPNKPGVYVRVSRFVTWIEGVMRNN
T9 sequence (P00747 581-810 limits assumed): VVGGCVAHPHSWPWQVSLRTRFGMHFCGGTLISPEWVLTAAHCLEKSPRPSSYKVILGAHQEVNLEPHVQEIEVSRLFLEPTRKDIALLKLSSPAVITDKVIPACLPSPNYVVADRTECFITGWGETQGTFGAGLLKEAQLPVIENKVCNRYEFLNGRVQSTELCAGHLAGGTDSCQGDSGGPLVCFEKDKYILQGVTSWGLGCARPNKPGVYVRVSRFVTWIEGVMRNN
T9 sequence (P00747 97-580 partner limits assumed): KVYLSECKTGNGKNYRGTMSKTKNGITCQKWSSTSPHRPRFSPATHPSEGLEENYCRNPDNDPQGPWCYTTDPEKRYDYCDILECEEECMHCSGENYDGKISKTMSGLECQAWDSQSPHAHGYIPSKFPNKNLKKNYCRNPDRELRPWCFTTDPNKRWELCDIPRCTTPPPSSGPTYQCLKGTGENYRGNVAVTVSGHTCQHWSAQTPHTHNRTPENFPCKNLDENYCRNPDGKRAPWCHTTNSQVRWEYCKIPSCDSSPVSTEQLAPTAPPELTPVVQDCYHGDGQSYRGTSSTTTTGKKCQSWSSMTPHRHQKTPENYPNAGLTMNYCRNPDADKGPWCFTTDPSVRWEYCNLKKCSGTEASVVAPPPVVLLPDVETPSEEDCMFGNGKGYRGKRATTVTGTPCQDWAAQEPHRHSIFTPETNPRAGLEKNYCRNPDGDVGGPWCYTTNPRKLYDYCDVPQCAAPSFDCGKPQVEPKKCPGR
Sequence of bovine Xa (P00743 234-492 limits assumed): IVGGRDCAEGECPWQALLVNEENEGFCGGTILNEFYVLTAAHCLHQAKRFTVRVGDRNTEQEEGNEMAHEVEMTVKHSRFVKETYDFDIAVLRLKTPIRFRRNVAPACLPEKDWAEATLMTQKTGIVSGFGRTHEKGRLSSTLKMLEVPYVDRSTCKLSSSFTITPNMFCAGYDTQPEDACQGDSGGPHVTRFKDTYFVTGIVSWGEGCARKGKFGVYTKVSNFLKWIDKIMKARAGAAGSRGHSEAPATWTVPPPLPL
Sequence of bovine Xa (P00743 41-180 partner limits assumed): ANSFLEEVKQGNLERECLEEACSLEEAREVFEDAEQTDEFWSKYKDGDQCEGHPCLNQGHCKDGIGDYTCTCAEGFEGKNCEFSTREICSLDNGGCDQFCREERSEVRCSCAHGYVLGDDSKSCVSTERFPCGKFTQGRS
Sequence of avidin (P02701 25-152): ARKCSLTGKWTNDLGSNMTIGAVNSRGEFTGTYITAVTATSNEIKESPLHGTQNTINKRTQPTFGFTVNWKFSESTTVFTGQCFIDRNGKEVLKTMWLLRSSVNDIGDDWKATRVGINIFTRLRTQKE

Compound | biotinylated protein on blot [2] | biotinylated protein on blot (hX) | biotinylated protein on blot (thrombin (hIIa)) | biotinylated protein on blot (factor Xa (hXa)) | biotinylated protein on blot (factor VIIa (hVIIa)) | biotinylated protein on blot (hVII) | biotinylated protein on blot (hII) | other results
5 (and 6) Carboxylfluoresceinyl-L-glutamylglycyl-L-arginine chloromethyl ketone hydrochloride [Fluoresceinyl-EGRCk] | – | – | – | – | – | – | – | Fluorophore/Protein (bovine Xa): 1.02 mole/mole; Fluorophore/Protein (Human Xa [1]): 1.06 mole/mole
CN(C)c1ccc2cc(S(=O)(=O)N[C@H](Cc3ccccc3)C(=O)N3CCC[C@H]3C(=O)N[C@@H](CCCNC(=N)N)C(=O)CCl)ccc2c1.Cl [2,6-dansyl-FPRck.HCl, 6-Dimethylaminonapthalene-2-sulfonyl-D-phenylalanyl-L-prolyl-L-arginine chloromethyl ketone hydrochloride] | – | – | – | – | – | – | – | blocking of reaction of thrombin with S2238 (thrombin): rapidly blocked
NC(N)=NCCC[C@H](NC(=O)[C@@H]1CCCN1C(=O)[C@H](N)Cc1ccccc1)C(=O)CCl [FPRck] | – | – | – | – | – | – | – | decrease of specific activity of tissue factor (tissue factor; 1.0 mM, 24 hours): 10-20%
O=C(O)c1cc[c]([Hg][Cl])cc1 [p-chloromercuribenzoate] | – | – | – | – | – | – | – | decrease of specific activity of tissue factor (tissue factor; 100 µM, 2 hours): 10-20%
Biotinyl-D-phenylalanyl-L-prolyl-L-arginine Chloromethyl Ketone [Biotinyl-PPACK] | none of the proteins showed a positive blot | none of the proteins showed a positive blot | none of the proteins showed a positive blot | none of the proteins showed a positive blot | none of the proteins showed a positive blot | none of the proteins showed a positive blot | none of the proteins showed a positive blot | biotinylated protein on blot (hPg): none of the proteins showed a positive blot; biotinylated protein on blot (plasmin (hPm)): none of the proteins showed a positive blot; enhancement of the fluorescence of fluorescein-avidin (avidin): positive
Biotinyl-ε-aminocaproyl-L-tyrosylglycyl-L-arginine chloromethyl ketone [BC-YGR-CK] | Identical results | Identical results | Identical results | Identical results | Identical results | Identical results | Identical results | biotinylated proteins on blot of activated plasma (activated human plasma): several biotinylated proteins; factor VIIa remaining after treatment and avidin matrix, gel analysis (factor VIIa): no factor VIIa remained; also recorded: no contamination with factor VIIa
biotinyl-ε-aminocaproyl-D-phenylalanyl-L-prolyl-L-arginine chloromethyl ketone [BC-PPACK] | positive | No reaction | positive | positive | positive | No reaction | No reaction | relative activity (vs. S2222) (Human Xa [3]; 0.46 equivalents added): 0.62; relative activity (vs. S2222) (Human Xa [3]; 0.92 equivalents added): 0.13; relative activity (vs. S2222) (Human Xa [3]; 1.38 equivalents added): 0.01; relative activity (vs. S2222) (Human Xa [3]; 1.84 equivalents added): 0.00; relative activity (vs. S2222) (Human Xa [3]; 2.76 equivalents added): 0.00; biotinylated protein on blot (hPg): No reaction; biotinylated protein on blot (plasmin (hPm)): positive
